For test [1], the target named is GDP-bound HRAS wild-type protein (Homo sapiens, UniProt P01112). As to the kind of experiment: Binding to HRAS by surface plasmon resonance (SPR), Single Cycle Kinetics. (SPR reads the build-up and loss of mass on a sensor chip optically.)
Test [2] has as its target GDP-bound NRAS wild-type protein (Homo sapiens, UniProt P01111). As to the kind of experiment: Binding to NRAS by surface plasmon resonance (SPR), Single Cycle Kinetics.
Where [3] appears, read: SPR, GDP-bound wild-type proteins.

Results on seven compounds are retold here after patent publication US20250230193A1, “CYCLIC COMPOUND HAVING SELECTIVE KRAS INHIBITORY EFFECT ON HRAS AND NRAS” (CHUGAI SEIYAKU KABUSHIKI KAISHA, priority 2022, published 2025).

Where a SMILES comes first, the peptide text is derived from it. Bridges are numbered along the chain shown (N, C = ends). [ ]: non-standard residue; d: D form. The star is where a group is joined. hPhe(3-Cl-4-CF3) = N[C@@H](CCc1ccc(C(F)(F)F)c(Cl)c1)C(=O)O; NPrPhe(4-CF3) = CCCN[C@@H](Cc1ccc(C(F)(F)F)cc1)C(=O)O; NMeGly(cPent) = CN[C@H](C(=O)O)C1CCCC1; Pro(4,4-F2) = O=C(O)[C@@H]1CC(F)(F)CN1; Hyp = O=C(O)[C@@H]1C[C@@H](O)CN1; NMeD = CN[C@@H](CC(=O)O)C(=O)O; NMeL = CN[C@@H](CC(C)C)C(=O)O; Morpholide = C1CN(*)CCO1; Ac5c = NC1(C(=O)O)CCCC1; Aze = O=C(O)[C@@H]1CCN1; Ac4c = NC1(C(=O)O)CCC1; Sar = CNCC(=O)O

GDP-bound HRAS wild-type protein, sequence (P01112 whole entry): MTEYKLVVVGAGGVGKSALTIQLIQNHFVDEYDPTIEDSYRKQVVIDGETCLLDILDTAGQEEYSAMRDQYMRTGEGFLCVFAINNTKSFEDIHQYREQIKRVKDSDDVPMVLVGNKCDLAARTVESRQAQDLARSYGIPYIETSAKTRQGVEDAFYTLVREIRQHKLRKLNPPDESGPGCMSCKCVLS
GDP-bound NRAS wild-type protein, sequence (P01111 whole entry): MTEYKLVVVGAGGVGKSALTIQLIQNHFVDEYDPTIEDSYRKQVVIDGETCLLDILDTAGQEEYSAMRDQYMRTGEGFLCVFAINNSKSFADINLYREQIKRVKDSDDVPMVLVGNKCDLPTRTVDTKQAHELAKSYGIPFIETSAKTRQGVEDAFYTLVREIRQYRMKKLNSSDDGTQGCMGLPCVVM

`CC[C@@H]1C[C@H]2C(=O)NC3(CCCC3)C(=O)N(C)[C@@H](C3CCCC3)C(=O)N(C)[C@H](C(=O)N(C)CC)CC(=O)N(C)[C@@H](C)C(=O)N[C@@H]([C@@H](C)CC)C(=O)N(C)CC(=O)N(C)[C@H]3C/C=C\CCN(C3=O)[C@@H](Cc3ccc(C(F)(F)F)cc3)C(=O)N(C)CC(=O)N[C@@H](CCc3cc(F)c(C(F)(F)F)c(F)c3)C(=O)N2C1` [PP2271]: in test [1] (SPR, GDP-bound HRAS wild-type vs GDP-bound KRAS wild-type), the “HRAS/KRAS (ratio of KD value with respect to HRAS to KD value with respect to KRAS)” value is “A (a compound having 10 or more and less than 20 is denoted as A)”. Besides, the “NRAS/KRAS (ratio of KD value with respect to NRAS to KD value with respect to KRAS)” value in test [2] (SPR, GDP-bound NRAS wild-type vs GDP-bound KRAS wild-type) is “A (a compound having 10 or more and less than 20 is denoted as A)”.

For `CC[C@H](C)[C@@H]1NC(=O)[C@H](COC)N(C)C(=O)C[C@@H](C(=O)N(C)C)N(C)C(=O)[C@H](C2CCCCC2)N(C)C(=O)C2(CC(C)(C)C2)NC(=O)[C@@H]2C[C@@H](OC3CCC3)CN2C(=O)[C@H](CCc2cc(F)c(C(F)(F)F)c(F)c2)NC(=O)CN(C)C(=O)[C@H](Cc2ccc(C(F)(F)F)cc2)N2CC/C=C\C[C@@H](C2=O)N(C)C(=O)CN(C)C1=O` [PP2655], the “HRAS/KRAS (ratio of KD value with respect to GDP-bound HRAS wild-type protein to KD value with respect to KRAS)” value in test [1] (class symbols) was “A (a compound having 10 or more and less than 20 is denoted as A)”. Also, the “NRAS/KRAS (ratio of KD value with respect to GDP-bound NRAS wild-type protein to KD value with respect to KRAS)” value in test [2] (class symbols) is listed as “AA (a compound having 20 or more is denoted as AA)”.

Turning to `CCCN1C(=O)CN(C)C(=O)[C@@H]2CCN2C(=O)[C@H]([C@@H](C)CC)NC(=O)[C@H](CC(C)C)N(C)C(=O)C[C@@H](C(=O)N2CCOCC2)N(C)C(=O)[C@H](C2CCCC2)N(C)C(=O)C2(CCCC2)NC(=O)[C@@H]2C[C@@H](OCC)CN2C(=O)[C@H](CCc2ccc(C(F)(F)F)c(Cl)c2)NC(=O)CN(C)C(=O)[C@@H]1Cc1ccc(C(F)(F)F)cc1` [PP0310] ([NMeL]I[Aze][Sar][NPrPhe(4-CF3)][Sar][hPhe(3-Cl-4-CF3)][Hyp](Et)[Ac5c][NMeGly(cPent)][NMeD]-Morpholide; lactam N-11), in test [1] (SPR), the “HRAS/KRAS (ratio of KD for GDP-bound HRAS wild-type to KD for KRAS)” value is “C (A compound having a KD ratio of 0.1 or more and less than 3 is denoted as C)”. The “NRAS/KRAS (ratio of KD for GDP-bound NRAS wild-type to KD for KRAS)” value in test [2] (SPR) is “B (a compound having 3 or more and less than 10 is denoted as B)”.

With `CCO[C@@H]1C[C@H]2C(=O)NC3(CCC3)C(=O)N(C)[C@@H](C3CCCC3)C(=O)N(C)[C@H](C(=O)N(C)C)CC(=O)N(C)[C@@H](CC3CCCC3)C(=O)N[C@@H]([C@@H](C)CC)C(=O)N(C)CC(=O)N(C)[C@H]3C/C=C\CCN(C3=O)[C@@H](Cc3ccc(C)cc3)C(=O)N(C)CC(=O)N[C@@H](CCc3cc(F)c(CC)c(OC)c3)C(=O)N2C1` [PP2674], the “HRAS/KRAS (ratio of KD value with respect to GDP-bound HRAS wild-type protein to KD value with respect to KRAS)” value in test [1] (class symbols) was “A (a compound having 10 or more and less than 20 is denoted as A)”. The “NRAS/KRAS (ratio of KD value with respect to GDP-bound NRAS wild-type protein to KD value with respect to KRAS)” value in test [2] (class symbols) is “A (a compound having 10 or more and less than 20 is denoted as A)”.

Take `CCCN1C(=O)[C@@H]2CCN2C(=O)CN(C)C(=O)[C@H]([C@@H](C)CC)NC(=O)[C@H](CC(C)C)N(C)C(=O)C[C@@H](C(=O)N2CCOCC2)NC(=O)[C@H](C2CCCC2)N(C)C(=O)C2(CCC2)NC(=O)[C@@H]2CC(F)(F)CN2C(=O)[C@H](CCc2ccc(C(F)(F)F)c(Cl)c2)NC(=O)CN(C)C(=O)[C@@H]1Cc1ccc(C(F)(F)F)cc1` [PP0352] ([NMeL]I[Sar][Aze][NPrPhe(4-CF3)][Sar][hPhe(3-Cl-4-CF3)][Pro(4,4-F2)][Ac4c][NMeGly(cPent)]D-Morpholide; lactam N-11): in test [1] (SPR), the “HRAS/KRAS (ratio of KD for GDP-bound HRAS wild-type to KD for KRAS)” value is “B (a compound having 3 or more and less than 10 is denoted as B)”. Further, the “NRAS/KRAS (ratio of KD for GDP-bound NRAS wild-type to KD for KRAS)” value in test [2] (SPR) was “C (A compound having a KD ratio of 0.1 or more and less than 3 is denoted as C)”.

Consider `CCO[C@@H]1C[C@H]2C(=O)NC3(CC(C)(C)C3)C(=O)N(C)[C@@H](C3CCCC3)C(=O)N(C)[C@H](C(=O)N(C)C)CC(=O)N(C)[C@@H](CC(F)(F)F)C(=O)N[C@@H]([C@@H](C)CC)C(=O)N(C)CC(=O)N(C)[C@H]3C/C=C\CCN(C3=O)[C@@H](Cc3ccc(C(F)(F)F)cc3)C(=O)N(C)CC(=O)N[C@@H](CCc3cc(F)c(C(F)(F)F)c(F)c3)C(=O)N2C1` [PP1644], for which the “HRAS/KRAS (ratio of KD value for HRAS to KD value for KRAS)” value in test [1] (KD ratio, GDP-bound HRAS wild-type vs GDP-bound KRAS wild-type, SPR) is “A (a compound having 10 or more and less than 20 is denoted as A)”. Further, in test [2] (KD ratio, GDP-bound NRAS wild-type vs GDP-bound KRAS wild-type, SPR), the “NRAS/KRAS (ratio of KD value for NRAS to KD value for KRAS)” value was “A (a compound having 10 or more and less than 20 is denoted as A)”.

Regarding `CCCO[C@@H]1C[C@H]2C(=O)NC3(CC(C)(C)C3)C(=O)N(C)[C@@H](C3CCCC3)C(=O)N(C)[C@H](C(=O)N(C)CC)CC(=O)N(C)[C@H]3CCCc4ccc(cc4)C[C@@H](C(=O)N(C)CC(=O)N[C@@H](CCc4ccc(C(F)(F)F)c(OC)c4)C(=O)N2C1)N1CC/C=C\C[C@@H](C1=O)N(C)C(=O)CN(C)C(=O)[C@H]([C@@H](C)CC)NC3=O` [PP3083], the “HRAS/KRAS (ratio of KD value with respect to GDP-bound HRAS wild-type protein to KD value with respect to KRAS)” value in test [1] (setting [3]) is “A (a compound having 10 or more and less than 20 is denoted as A)”. Further, in test [2] (setting [3]), the “NRAS/KRAS (ratio of KD value with respect to GDP-bound NRAS wild-type protein to KD value with respect to KRAS)” value was “A (a compound having 10 or more and less than 20 is denoted as A)”.
